Experimental data reported in ChEMBL document CHEMBL1140093, “Structure-activity relationships for a novel series of dopamine D2-like receptor ligands based on N-substituted 3-aryl-8-azabicyclo[3.2.1]octan-3-ol” (J Med Chem, 2008).

Columns and labels:
[1] = target: T1, D(3) dopamine receptor (Homo sapiens, UniProt P35462); test: Displacement of [125I]IABN from human dopamine D3 receptor expressed in HEK293 cells; format: cell-based
[2] = target: 5-hydroxytryptamine receptor 2A (Homo sapiens, UniProt P28223); test: Displacement of [3H]ketanserin from 5HT2A receptor
[3] = target: T1, D(3) dopamine receptor; test: Antagonist activity at dopamine D3 receptor; format: functional
[4] = target: T2, 5-hydroxytryptamine receptor 1A (Homo sapiens, UniProt P08908); test: Displacement of [3H]8OH-DPAT from 5HT1A receptor
T2 sequence (P08908 whole entry): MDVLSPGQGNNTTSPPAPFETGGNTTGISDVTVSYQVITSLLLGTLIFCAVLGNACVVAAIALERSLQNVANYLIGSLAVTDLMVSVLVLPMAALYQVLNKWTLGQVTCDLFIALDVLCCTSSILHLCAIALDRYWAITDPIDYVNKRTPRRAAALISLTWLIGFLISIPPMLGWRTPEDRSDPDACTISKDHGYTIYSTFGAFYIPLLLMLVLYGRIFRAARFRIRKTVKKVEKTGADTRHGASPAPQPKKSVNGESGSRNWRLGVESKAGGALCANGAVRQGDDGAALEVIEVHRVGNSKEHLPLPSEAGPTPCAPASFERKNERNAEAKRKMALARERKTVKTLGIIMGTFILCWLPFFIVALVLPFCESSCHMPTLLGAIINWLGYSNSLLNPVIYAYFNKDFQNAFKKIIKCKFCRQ

[5] = target: T3, D(2) dopamine receptor (Homo sapiens, UniProt P14416); test: Displacement of [125I]IABN from human dopamine D2L receptor expressed in HEK293 cells; format: cell-based
[6] = target: T4, D(4) dopamine receptor (Homo sapiens, UniProt P21917); test: Displacement of [125I]IABN from human dopamine D4 receptor
T4 sequence (P21917 whole entry): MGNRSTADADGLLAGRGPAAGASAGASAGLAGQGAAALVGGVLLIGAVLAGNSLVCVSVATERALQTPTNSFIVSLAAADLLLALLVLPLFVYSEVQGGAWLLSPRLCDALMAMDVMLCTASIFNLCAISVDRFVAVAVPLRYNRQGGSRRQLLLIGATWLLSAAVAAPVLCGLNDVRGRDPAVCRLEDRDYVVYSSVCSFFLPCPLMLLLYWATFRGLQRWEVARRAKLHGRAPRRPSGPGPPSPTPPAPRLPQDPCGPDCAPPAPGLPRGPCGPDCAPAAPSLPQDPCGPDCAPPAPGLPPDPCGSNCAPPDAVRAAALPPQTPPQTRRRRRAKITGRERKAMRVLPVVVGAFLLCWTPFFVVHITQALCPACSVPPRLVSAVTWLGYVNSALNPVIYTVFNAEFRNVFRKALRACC

[7] = target: T5, 5-hydroxytryptamine receptor 2C (Homo sapiens, UniProt P28335); test: Displacement of [3H]mesulergine from 5HT2C receptor
T5 sequence (P28335 whole entry): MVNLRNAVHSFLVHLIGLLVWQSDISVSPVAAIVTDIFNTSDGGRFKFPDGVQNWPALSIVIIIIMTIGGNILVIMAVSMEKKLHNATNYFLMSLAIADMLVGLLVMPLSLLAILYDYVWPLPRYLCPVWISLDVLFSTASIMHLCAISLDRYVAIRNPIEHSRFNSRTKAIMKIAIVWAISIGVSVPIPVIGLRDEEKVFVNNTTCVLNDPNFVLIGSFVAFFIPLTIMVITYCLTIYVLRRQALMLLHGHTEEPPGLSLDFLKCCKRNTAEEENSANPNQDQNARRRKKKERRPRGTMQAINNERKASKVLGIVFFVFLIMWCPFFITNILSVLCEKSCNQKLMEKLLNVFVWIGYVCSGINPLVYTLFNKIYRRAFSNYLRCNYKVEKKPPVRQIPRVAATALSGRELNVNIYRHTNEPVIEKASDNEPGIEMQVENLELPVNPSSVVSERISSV

[8] = target: D(1A) dopamine receptor (Homo sapiens, UniProt P21728); test: Displacement of [3H]SCH23390 from dopamine D1 receptor
[9] = target: T3, D(2) dopamine receptor; test: Antagonist activity at dopamine D2 receptor; format: functional

T1 sequence (P35462 whole entry): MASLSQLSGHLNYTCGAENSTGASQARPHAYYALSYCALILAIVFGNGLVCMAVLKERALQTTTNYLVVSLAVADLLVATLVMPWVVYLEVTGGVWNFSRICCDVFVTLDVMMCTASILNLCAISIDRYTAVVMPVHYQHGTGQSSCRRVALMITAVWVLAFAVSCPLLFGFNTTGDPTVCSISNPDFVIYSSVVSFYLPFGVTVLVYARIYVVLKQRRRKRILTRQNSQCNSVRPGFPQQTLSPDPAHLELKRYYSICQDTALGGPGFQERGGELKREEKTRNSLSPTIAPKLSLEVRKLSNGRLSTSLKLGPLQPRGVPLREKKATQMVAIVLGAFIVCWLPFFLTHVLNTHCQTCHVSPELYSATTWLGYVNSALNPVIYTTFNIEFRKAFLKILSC
T3 sequence (P14416 whole entry): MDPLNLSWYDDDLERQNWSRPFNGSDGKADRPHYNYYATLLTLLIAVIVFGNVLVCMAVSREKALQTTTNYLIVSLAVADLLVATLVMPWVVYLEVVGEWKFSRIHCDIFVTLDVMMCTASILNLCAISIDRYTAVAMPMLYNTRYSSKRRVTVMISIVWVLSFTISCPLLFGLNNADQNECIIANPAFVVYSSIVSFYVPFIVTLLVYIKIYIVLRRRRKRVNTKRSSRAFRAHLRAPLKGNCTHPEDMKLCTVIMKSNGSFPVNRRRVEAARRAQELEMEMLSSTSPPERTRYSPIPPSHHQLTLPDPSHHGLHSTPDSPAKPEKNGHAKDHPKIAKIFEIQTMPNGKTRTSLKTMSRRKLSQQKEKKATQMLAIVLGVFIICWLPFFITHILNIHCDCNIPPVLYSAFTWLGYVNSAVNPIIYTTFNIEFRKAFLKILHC
Chain of D(1A) dopamine receptor (P21728 whole entry): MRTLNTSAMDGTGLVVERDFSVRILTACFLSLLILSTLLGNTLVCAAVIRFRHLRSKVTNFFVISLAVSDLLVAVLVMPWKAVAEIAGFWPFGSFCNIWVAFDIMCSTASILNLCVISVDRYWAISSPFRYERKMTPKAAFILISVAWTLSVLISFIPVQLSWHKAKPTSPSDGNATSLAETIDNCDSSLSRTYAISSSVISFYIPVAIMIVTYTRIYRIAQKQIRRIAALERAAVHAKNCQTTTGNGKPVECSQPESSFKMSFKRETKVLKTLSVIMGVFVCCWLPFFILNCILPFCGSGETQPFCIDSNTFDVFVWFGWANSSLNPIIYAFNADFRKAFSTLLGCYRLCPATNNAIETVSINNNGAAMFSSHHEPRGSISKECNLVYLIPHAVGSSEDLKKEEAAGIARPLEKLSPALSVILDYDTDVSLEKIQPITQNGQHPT
Chain of 5-hydroxytryptamine receptor 2A (P28223 whole entry): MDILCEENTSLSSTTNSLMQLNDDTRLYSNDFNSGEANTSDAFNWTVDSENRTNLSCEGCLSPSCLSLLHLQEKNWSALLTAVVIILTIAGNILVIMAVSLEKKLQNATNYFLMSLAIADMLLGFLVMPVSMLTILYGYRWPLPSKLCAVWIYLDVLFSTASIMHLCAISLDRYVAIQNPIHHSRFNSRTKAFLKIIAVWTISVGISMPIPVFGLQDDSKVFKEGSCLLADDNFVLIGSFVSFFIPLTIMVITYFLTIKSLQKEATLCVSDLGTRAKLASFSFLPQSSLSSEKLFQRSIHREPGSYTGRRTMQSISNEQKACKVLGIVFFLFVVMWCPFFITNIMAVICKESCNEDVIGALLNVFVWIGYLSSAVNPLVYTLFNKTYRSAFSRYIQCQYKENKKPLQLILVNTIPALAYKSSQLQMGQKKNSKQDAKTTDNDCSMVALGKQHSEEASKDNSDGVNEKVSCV

`O[C@@]1(c2ccc(Cl)c(Cl)c2)C[C@H]2CC[C@@H](C1)N2Cc1c[nH]c2ccccc12` gave a Ki [1] of 0.00635 µM, a Ki [2] of 2.8 µM and an IC50 [3] of 0.0102 µM. It also gave a Ki [4] of over 10 µM.
`O[C@@]1(c2cccc(Cl)c2Cl)C[C@H]2CC[C@@H](C1)N2Cc1c[nH]c2ccccc12` showed a Ki [1] of 0.48 µM and a Ki [5] of 0.545 µM.
Molecule `CSc1ccc([C@]2(O)C[C@H]3CC[C@@H](C2)N3Cc2c[nH]c3ccccc23)cc1` has a Ki [1] of 0.541 µM and a Ki [5] of 0.565 µM.
Work on `COc1ccccc1[C@]1(O)C[C@H]2CC[C@@H](C1)N2Cc1c[nH]c2ccccc12` yielded a Ki [1] of 6.41 µM and a Ki [5] of 2.07 µM.
Work on `OC1(c2ccc(Cl)cc2)CCN(Cc2c[nH]c3ccccc23)CC1` yielded an IC50 [3] of 0.0904 µM and a Ki [6] of 1.1 µM.
`COc1ccc2[nH]cc(CN3[C@@H]4CC[C@H]3C[C@](O)(c3ccc(SC)cc3)C4)c2c1` was tested, and the Ki [1] was 1.21 µM and the Ki [5] was 0.554 µM.
With `O[C@@]1(c2ccc(Cl)cc2)C[C@H]2CC[C@@H](C1)N2Cc1coc2ccc3ccccc3c12` the Ki [1] was 0.0084 µM and the Ki [5] was 0.0117 µM.
Molecule `O[C@@]1(c2ccc(F)cc2)C[C@H]2CC[C@@H](C1)N2Cc1coc2ccccc12` has a Ki [1] of 0.0012 µM and a Ki [5] of 0.0049 µM.
For `O[C@]1(c2ccc(Cl)cc2)C[C@H]2CC[C@@H](C1)N2Cc1c[nH]c2ccccc12`, the Ki [1] was 0.0155 µM, the Ki [5] was 0.0334 µM and the Ki [2] was 4.77 µM. For the same molecule, the IC50 [3] was 0.0123 µM, the Ki [7] was over 10 µM and the Ki [8] was 1.22 µM. It also gave an IC50 [9] of 0.0483 µM, a Ki [6] of over 5 µM and a Ki [4] of over 10 µM.
With `O[C@@]1(c2ccc3ccccc3c2)C[C@H]2CC[C@@H](C1)N2Cc1c[nH]c2ccccc12` the Ki [1] was 0.224 µM and the Ki [5] was 0.196 µM.
`O[C@@]1(c2ccc(Cl)cc2)C[C@H]2CC[C@@H](C1)N2Cc1csc2ccccc12` gave a Ki [1] of 0.00362 µM, a Ki [5] of 0.0129 µM and an IC50 [3] of 0.0042 µM. It also gave a Ki [7] of over 10 µM, a Ki [8] of 3 µM and an IC50 [9] of 0.0262 µM. For the same molecule, the Ki [6] was 0.14 µM and the Ki [4] was 1.72 µM.
For `O[C@@]1(c2ccc(Cl)cc2)C[C@H]2CC[C@@H](C1)N2Cc1coc2ccc(F)cc12`, the Ki [1] was 0.00037 µM and the Ki [5] was 0.0012 µM.
Molecule `O[C@@]1(c2cccc(Cl)c2Cl)C[C@H]2CC[C@@H](C1)N2Cc1coc2ccccc12` has a Ki [1] of 0.0322 µM.
`O[C@@]1(c2cccc(Cl)c2Cl)C[C@H]2CC[C@@H](C1)N2Cc1csc2ccccc12` gave a Ki [1] of 0.431 µM and a Ki [5] of 0.28 µM.
`O[C@@]1(c2ccc(Br)cc2)C[C@H]2CC[C@@H](C1)N2Cc1coc2ccccc12` showed a Ki [1] of 0.00092 µM and a Ki [5] of 0.0015 µM.
In the case of `O[C@@]1(c2ccc(Cl)c(Cl)c2)C[C@H]2CC[C@@H](C1)N2Cc1coc2ccc(F)cc12`, the Ki [1] is reported as 0.00053 µM and the Ki [5] is reported as 0.0014 µM.
Work on `O[C@@]1(c2ccc(Cl)cc2)C[C@H]2CC[C@@H](C1)N2Cc1coc2ccccc12` yielded a Ki [1] of 0.00071 µM, an IC50 [3] of 0.00085 µM and a Ki [7] of over 10 µM.
`O[C@]1(c2ccc(Cl)c(Cl)c2)C[C@H]2CC[C@@H](C1)N2Cc1coc2ccccc12` was tested, and the Ki [1] was 0.00034 µM and the Ki [5] was 0.0017 µM.
Work on `O[C@@]1(c2ccc(Cl)cc2)C[C@H]2CC[C@@H](C1)N2Cc1n[nH]c2ccccc12` yielded a Ki [1] of 0.0847 µM and a Ki [5] of 0.225 µM.
`O[C@@]1(c2ccc(Cl)cc2)C[C@H]2CC[C@@H](C1)N2Cc1coc2c1ccc1ccccc12` was tested, and the Ki [1] was 0.002 µM and the Ki [5] was 0.0056 µM.
With `O[C@@]1(c2ccc(F)cc2)C[C@H]2CC[C@@H](C1)N2Cc1c[nH]c2ccccc12` the Ki [1] was 0.031 µM.
`COc1ccc2[nH]cc(CN3[C@@H]4CC[C@H]3C[C@](O)(c3ccc(Cl)cc3)C4)c2c1` gave a Ki [1] of 0.0212 µM.
Molecule `COc1ccc2occ(CN3[C@@H]4CC[C@H]3C[C@](O)(c3ccc(Cl)cc3)C4)c2c1` (single isomer, unassigned) has a Ki [1] of 0.0021 µM and a Ki [5] of 0.0015 µM.
